According to patent US20180185408A1, “ANTIFUNGAL NYLON-3 POLYMERS AND COMBINATION THERAPY USING THEM TO TREAT FUNGAL INFECTIONS” (priority 2016, published 2018):
In brackets after ≈: the same amount, converted by molar mass. Read-outs that look alike come from different tables or passages of the source.

Key:
Format in all cases: cell-based
Candida spp. = assay: MIC and MFC by broth microdilution, summary over Candida strains; conditions: Candida test strains, except resistant strain E4
Candida albicans [1] = assay: MIC by broth microdilution (CLSI M27-A3)
Candida lusitaniae = assay: Minimum fungicidal concentration (MFC), plating after MIC assay; conditions: C. Lusitania (CL3), Sensitive; RPMI 1640 (0.2% Glucose); […]10^5 cells/mL; 30° C.
Cryptococcus neoformans = assay: as above; conditions: RPMI 1640 (0.2% Glucose), […]10^3 cells/mL, 37° C.
Cryptococcus gattii = assay: as above; conditions: Sensitive, RPMI 1640 (0.2% Glucose), […]10^3 cells/mL, 37° C.
Candida albicans [2] = assay: as above; conditions: RPMI 1640 (0.2% Glucose), […]10^5 cells/mL, 30° C.

Q: C[C@@H]1[C@H](O)[C@@H](C)/C=C/C=C/C=C/C=C/C=C/C=C/C=C/[C@H](O[C@@H]2O[C@H](C)[C@@H](O)[C@H](N)[C@@H]2O)C[C@@H]2O[C@](O)(C[C@@H](O)C[C@@H](O)[C@H](O)CC[C@@H](O)C[C@@H](O)CC(=O)O[C@H]1C)C[C@H](O)[C@H]2C(=O)O [AMB, amphotericin B] was tested. Which “MIC and MFC values” (Candida spp.) did it give?
A: sub-μM

Q: And the MIC (Candida albicans [1]; C. albicans (E4), Amp B Resistant, RPMI 1640 (0.2% Glucose), […]10^5 cells/mL, 30° C.)?
A: 3.13 µg/mL

Q: What about the MIC (Candida albicans [1]; C. albicans (E4), […]10^3 cells/mL, 35°C, read-out: MIC) of the same compound?
A: 3.4 µM

Q: What about the MIC (Candida albicans [1]; C. albicans (Gu5), Fluconazole Resistant, RPMI 1640 (0.2% Glucose), […]10^5 cells/mL, 30° C.) of the same compound?
A: 0.78 µg/mL

Q: What about the MIC (Candida albicans [1]; C. albicans (Gu5), […]10^3 cells/mL, 35°C, read-out: MIC) of the same compound?
A: 0.9 µM

Q: What about the MIC (Candida albicans [1]; C. albicans (K1), Fluconazole Resistant, RPMI 1640 (0.2% Glucose), […]10^5 cells/mL, 30° C.) of the same compound?
A: 0.78 µg/mL

Q: What about the MIC (Candida albicans [1]; C. albicans (K1), […]10^3 cells/mL, 35°C, read-out: MIC) of the same compound?
A: 1.7 µM

Q: What about the MIC (Candida albicans [1]; C. albicans (SC5314), […]10^3 cells/mL, 35°C, read-out: MIC) of the same compound?
A: 0.9 µM

Q: What about the MIC (Candida albicans [1]; C. albicans (SCG5314), Sensitive, RPMI 1640 (0.2% Glucose), […]10^5 cells/mL, 30° C.) of the same compound?
A: 0.78 µg/mL

Q: What about the MIC (Candida albicans [1]; E4, […]10^3 cells/mL, 35°C, OD600 24 h, avg.) of the same compound?
A: 6.3 µg/mL

Q: What about the MIC (Candida albicans [1]; E4, […]10^3 cells/mL, 35°C, OD600 24 h, avg., read-out: MIC) of the same compound?
A: 6.8 µM

Q: And the MIC (Candida albicans [1]; E4, […]10^3 cells/mL, 35°C, OD600 24 h, trial 1)?
A: 6.3 µg/mL

Q: What about the MIC (Candida albicans [1]; E4, […]10^3 cells/mL, 35°C, OD600 24 h, trial 1, read-out: MIC) of the same compound?
A: 6.8 µM

Q: And the MIC (Candida albicans [1]; E4, […]10^3 cells/mL, 35°C, OD600 24 h, trial 2)?
A: 6.3 µg/mL

Q: What about the MIC (Candida albicans [1]; E4, […]10^3 cells/mL, 35°C, OD600 24 h, trial 2, read-out: MIC) of the same compound?
A: 6.8 µM

Q: And the MIC (Candida albicans [1]; E4, […]10^5 cells/mL, 30°C, OD600 48 h, avg.)?
A: 3.1 µg/mL

Q: And the MIC (Candida albicans [1]; E4, […]10^5 cells/mL, 30°C, OD600 48 h, avg., read-out: MIC)?
A: 3.4 µM

Q: What about the MIC (Candida albicans [1]; E4, […]10^5 cells/mL, 30°C, OD600 48 h, trial 1) of the same compound?
A: 3.1 µg/mL

Q: And the MIC (Candida albicans [1]; E4, […]10^5 cells/mL, 30°C, OD600 48 h, trial 1, read-out: MIC)?
A: 3.4 µM

Q: What about the MIC (Candida albicans [1]; E4, […]10^5 cells/mL, 30°C, OD600 48 h, trial 2) of the same compound?
A: 3.1 µg/mL

Q: And the MIC (Candida albicans [1]; E4, […]10^5 cells/mL, 30°C, OD600 48 h, trial 2, read-out: MIC)?
A: 3.4 µM

Q: What about the MIC (Candida albicans [1]; Gu5, […]10^3 cells/mL, 35°C, OD600 24 h, avg.) of the same compound?
A: 2.0 µg/mL

Q: And the MIC (Candida albicans [1]; Gu5, […]10^3 cells/mL, 35°C, OD600 24 h, avg., read-out: MIC)?
A: 2.2 µM

Q: And the MIC (Candida albicans [1]; Gu5, […]10^3 cells/mL, 35°C, OD600 24 h, trial 1)?
A: <1.6 µg/mL

Q: And the MIC (Candida albicans [1]; Gu5, […]10^3 cells/mL, 35°C, OD600 24 h, trial 1, read-out: MIC)?
A: <1.7 µM

Q: What about the MIC (Candida albicans [1]; Gu5, […]10^3 cells/mL, 35°C, OD600 24 h, trial 2) of the same compound?
A: 3.1 µg/mL

Q: And the MIC (Candida albicans [1]; Gu5, […]10^3 cells/mL, 35°C, OD600 24 h, trial 2, read-out: MIC)?
A: 3.4 µM

Q: And the MIC (Candida albicans [1]; Gu5, […]10^5 cells/mL, 30°C, OD600 48 h, avg.)?
A: 0.8 µg/mL

Q: What about the MIC (Candida albicans [1]; Gu5, […]10^5 cells/mL, 30°C, OD600 48 h, avg., read-out: MIC) of the same compound?
A: 0.9 µM

Q: And the MIC (Candida albicans [1]; Gu5, […]10^5 cells/mL, 30°C, OD600 48 h, trial 1)?
A: 0.8 µg/mL

Q: And the MIC (Candida albicans [1]; Gu5, […]10^5 cells/mL, 30°C, OD600 48 h, trial 1, read-out: MIC)?
A: 0.9 µM

Q: And the MIC (Candida albicans [1]; Gu5, […]10^5 cells/mL, 30°C, OD600 48 h, trial 2)?
A: 0.8 µg/mL

Q: And the MIC (Candida albicans [1]; Gu5, […]10^5 cells/mL, 30°C, OD600 48 h, trial 2, read-out: MIC)?
A: 0.9 µM

Q: What about the MIC (Candida albicans [1]; K1, […]10^3 cells/mL, 35°C, OD600 24 h, avg.) of the same compound?
A: <1.6 µg/mL

Q: And the MIC (Candida albicans [1]; K1, […]10^3 cells/mL, 35°C, OD600 24 h, avg., read-out: MIC)?
A: <1.7 µM

Q: What about the MIC (Candida albicans [1]; K1, […]10^3 cells/mL, 35°C, OD600 24 h, trial 1) of the same compound?
A: <1.6 µg/mL

Q: And the MIC (Candida albicans [1]; K1, […]10^3 cells/mL, 35°C, OD600 24 h, trial 1, read-out: MIC)?
A: <1.7 µM

Q: What about the MIC (Candida albicans [1]; K1, […]10^3 cells/mL, 35°C, OD600 24 h, trial 2) of the same compound?
A: <1.6 µg/mL

Q: And the MIC (Candida albicans [1]; K1, […]10^3 cells/mL, 35°C, OD600 24 h, trial 2, read-out: MIC)?
A: <1.7 µM

Q: And the MIC (Candida albicans [1]; K1, […]10^5 cells/mL, 30°C, OD600 48 h, avg.)?
A: 1.6 µg/mL

Q: What about the MIC (Candida albicans [1]; K1, […]10^5 cells/mL, 30°C, OD600 48 h, avg., read-out: MIC) of the same compound?
A: 1.7 µM

Q: And the MIC (Candida albicans [1]; K1, […]10^5 cells/mL, 30°C, OD600 48 h, trial 1)?
A: 1.6 µg/mL

Q: What about the MIC (Candida albicans [1]; K1, […]10^5 cells/mL, 30°C, OD600 48 h, trial 1, read-out: MIC) of the same compound?
A: 1.7 µM

Q: What about the MIC (Candida albicans [1]; K1, […]10^5 cells/mL, 30°C, OD600 48 h, trial 2) of the same compound?
A: 1.6 µg/mL

Q: What about the MIC (Candida albicans [1]; K1, […]10^5 cells/mL, 30°C, OD600 48 h, trial 2, read-out: MIC) of the same compound?
A: 1.7 µM

Q: What about the MIC (Candida albicans [1]; SC5314, […]10^3 cells/mL, 35°C, OD600 24 h, avg.) of the same compound?
A: 4.7 µg/mL

Q: And the MIC (Candida albicans [1]; SC5314, […]10^3 cells/mL, 35°C, OD600 24 h, avg., read-out: MIC)?
A: 5.1 µM

Q: What about the MIC (Candida albicans [1]; SC5314, […]10^3 cells/mL, 35°C, OD600 24 h, trial 1) of the same compound?
A: 3.1 µg/mL

Q: And the MIC (Candida albicans [1]; SC5314, […]10^3 cells/mL, 35°C, OD600 24 h, trial 1, read-out: MIC)?
A: 3.4 µM

Q: What about the MIC (Candida albicans [1]; SC5314, […]10^3 cells/mL, 35°C, OD600 24 h, trial 2) of the same compound?
A: 6.3 µg/mL

Q: And the MIC (Candida albicans [1]; SC5314, […]10^3 cells/mL, 35°C, OD600 24 h, trial 2, read-out: MIC)?
A: 6.8 µM

Q: And the MIC (Candida albicans [1]; SC5314, […]10^5 cells/mL, 30°C, OD600 48 h, avg.)?
A: 0.8 µg/mL

Q: And the MIC (Candida albicans [1]; SC5314, […]10^5 cells/mL, 30°C, OD600 48 h, avg., read-out: MIC)?
A: 0.9 µM

Q: What about the MIC (Candida albicans [1]; SC5314, […]10^5 cells/mL, 30°C, OD600 48 h, trial 1) of the same compound?
A: 0.8 µg/mL

Q: And the MIC (Candida albicans [1]; SC5314, […]10^5 cells/mL, 30°C, OD600 48 h, trial 1, read-out: MIC)?
A: 0.9 µM

Q: And the MIC (Candida albicans [1]; SC5314, […]10^5 cells/mL, 30°C, OD600 48 h, trial 2)?
A: 0.8 µg/mL

Q: What about the MIC (Candida albicans [1]; SC5314, […]10^5 cells/mL, 30°C, OD600 48 h, trial 2, read-out: MIC) of the same compound?
A: 0.9 µM

Q: And the MFC (Candida lusitaniae)?
A: 1.56 µg/mL (≈ 1.69 µM)

Q: What about the MFC (Cryptococcus neoformans; C. neoformans (B3501), Sensitive) of the same compound?
A: 0.8 µg/mL (≈ 0.866 µM)

Q: And the MFC (Cryptococcus neoformans; C. neoformans (C21F3), Rapamycin Resistant)?
A: 0.8 µg/mL (≈ 0.866 µM)

Q: What about the MFC (Cryptococcus neoformans; C. neoformans (H99), Sensitive) of the same compound?
A: 1.6 µg/mL (≈ 1.73 µM)

Q: What about the MFC (Cryptococcus neoformans; C. neoformans (JEC21), Sensitive) of the same compound?
A: 0.4 µg/mL (≈ 0.433 µM)

Q: What about the MFC (Cryptococcus gattii; C. gattii (C751)) of the same compound?
A: 0.8 µg/mL (≈ 0.866 µM)

Q: And the MFC (Cryptococcus gattii; C. gattii (WM275))?
A: 3.1 µg/mL (≈ 3.35 µM)

Q: What about the MFC (Candida albicans [2]; C. albicans (E4), Amp B Resistant) of the same compound?
A: 12.5 µg/mL (≈ 13.5 µM)

Q: What about the MFC (Candida albicans [2]; C. albicans (Gu5), Fluconazole Resistant) of the same compound?
A: 1.56 µg/mL (≈ 1.69 µM)
